Measurements as given in US20240316022A1 (TYRA BIOSCIENCES, INC., priority 2021, published 2024).

Key:
Experiment in all cases: Kinase binding assay (kinase-tagged T7 phage, qPCR), Kd
FGFR1 = target: T1, FGFR1 (Homo sapiens, UniProt P11362); details: read-out: FGFR1 (Kd nM)
T1 construct: made in house; host or cells: E. coli derived from BL21, infected with T7 phage
Procedure: (§1) Kinase-tagged T7 phage strains were prepared in an E. coli host derived from the BL21 strain. E. coli were grown to log-phase and infected with T7 phage and incubated with shaking at 32° C. until lysis. The lysates were centrifuged and filtered to remove cell debris. […] The liganded beads were blocked with excess biotin and washed with blocking buffer SeaBlock (Pierce), 1% BSA, 0.05% Tween 20, 1 mM DTT to remove unbound ligand and to reduce non-specific binding.
(§2) Kds were determined using an 11-point 3-fold compound dilution series with three DMSO control points. […] The compounds were then diluted directly into the assays such that the final concentration of DMSO was 0.9%. All reactions performed in polypropylene 384-well plate. Each was a final volume of 0.02 ml. […] The kinase concentration in the eluates was measured by qPCR.
(§3) Binding constants were calculated with a standard dose-response curve using the Hill equation: […]
(§4) The Hill Slope was set to −1. Curves were fitted using a non-linear least square fit with the Levenberg-Marquardt algorithm.

FGFR2 = target: T2, FGFR2 (Homo sapiens, UniProt P21802); details: read-out: FGFR2 (Kd nM)
T2 construct: made in house; host or cells: E. coli derived from BL21, infected with T7 phage
Procedure: as §1, §2, §3, §4

FGFR3 = target: T3, FGFR3 (Homo sapiens, UniProt P22607); details: read-out: FGFR3 (Kd nM)
T3 construct: made in house; host or cells: E. coli derived from BL21, infected with T7 phage
Procedure: (§5) Kinase-tagged T7 phage strains were prepared in an E. coli host derived from the BL21 strain. E. coli were grown to log-phase and infected with T7 phage and incubated with shaking at 32° C. until lysis. The lysates were centrifuged and filtered to remove cell debris. Streptavidin-coated magnetic beads were treated with biotinylated small molecule ligands for 30 minutes at room temperature to generate affinity resins for kinase assays. The liganded beads were blocked with excess biotin and washed with blocking buffer SeaBlock (Pierce), 1% BSA, 0.05% Tween 20, 1 mM DTT to remove unbound ligand and to reduce non-specific binding. Binding reactions were assembled by combining kinases, liganded affinity beads, and test compounds in 1× binding buffer (20% SeaBlock, 0.17×PBS, 0.05% Tween 20, 6 mM DTT).
(§6) Test compounds were prepared as 111X stocks in 100% DMSO. Kds were determined using an 11-point 3-fold compound dilution series with three DMSO control points. All compounds for Kd measurements are distributed by acoustic transfer (non-contact dispensing) in 100% DMSO. The compounds were then diluted directly into the assays such that the final concentration of DMSO was 0.9%. All reactions performed in polypropylene 384-well plate. Each was a final volume of 0.02 ml. The assay plates were incubated at room temperature with shaking for 1 hour and the affinity beads were washed with wash buffer (1×PBS, 0.05% Tween 20). The beads were then re-suspended in elution buffer (1×PBS, 0.05% Tween 20, 0.5 μM non-biotinylated affinity ligand) and incubated at room temperature with shaking for 30 minutes. The kinase concentration in the eluates was measured by qPCR.
as §3, §4

FGFR4 = target: T4, FGFR4 (Homo sapiens, UniProt P22455); details: read-out: FGFR4 (Kd nM)
T4 construct: made in house; host or cells: E. coli derived from BL21, infected with T7 phage
Procedure: as §5, §6, §3, §4

T4 sequence (P22455 22-802): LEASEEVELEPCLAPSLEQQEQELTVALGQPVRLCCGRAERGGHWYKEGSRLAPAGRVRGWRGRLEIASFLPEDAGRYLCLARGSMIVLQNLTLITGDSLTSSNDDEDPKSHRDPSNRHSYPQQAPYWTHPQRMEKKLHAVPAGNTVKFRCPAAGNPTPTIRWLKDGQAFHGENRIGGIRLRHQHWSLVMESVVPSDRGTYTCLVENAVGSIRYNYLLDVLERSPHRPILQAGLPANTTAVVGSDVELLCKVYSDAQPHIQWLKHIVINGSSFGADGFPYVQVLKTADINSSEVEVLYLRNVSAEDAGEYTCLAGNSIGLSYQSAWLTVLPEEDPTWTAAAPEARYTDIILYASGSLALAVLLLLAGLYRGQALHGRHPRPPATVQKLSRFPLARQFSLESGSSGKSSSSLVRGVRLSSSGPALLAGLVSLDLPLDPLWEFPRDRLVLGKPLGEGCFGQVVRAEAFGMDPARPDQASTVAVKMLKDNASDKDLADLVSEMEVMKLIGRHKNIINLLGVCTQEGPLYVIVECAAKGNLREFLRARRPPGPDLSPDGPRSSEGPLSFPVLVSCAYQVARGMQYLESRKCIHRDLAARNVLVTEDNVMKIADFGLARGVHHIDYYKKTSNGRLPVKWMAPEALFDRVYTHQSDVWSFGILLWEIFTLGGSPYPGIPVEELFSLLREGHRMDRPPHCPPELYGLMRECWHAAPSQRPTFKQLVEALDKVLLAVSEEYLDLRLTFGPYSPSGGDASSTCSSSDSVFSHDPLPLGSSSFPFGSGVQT
T2 sequence (P21802 22-821): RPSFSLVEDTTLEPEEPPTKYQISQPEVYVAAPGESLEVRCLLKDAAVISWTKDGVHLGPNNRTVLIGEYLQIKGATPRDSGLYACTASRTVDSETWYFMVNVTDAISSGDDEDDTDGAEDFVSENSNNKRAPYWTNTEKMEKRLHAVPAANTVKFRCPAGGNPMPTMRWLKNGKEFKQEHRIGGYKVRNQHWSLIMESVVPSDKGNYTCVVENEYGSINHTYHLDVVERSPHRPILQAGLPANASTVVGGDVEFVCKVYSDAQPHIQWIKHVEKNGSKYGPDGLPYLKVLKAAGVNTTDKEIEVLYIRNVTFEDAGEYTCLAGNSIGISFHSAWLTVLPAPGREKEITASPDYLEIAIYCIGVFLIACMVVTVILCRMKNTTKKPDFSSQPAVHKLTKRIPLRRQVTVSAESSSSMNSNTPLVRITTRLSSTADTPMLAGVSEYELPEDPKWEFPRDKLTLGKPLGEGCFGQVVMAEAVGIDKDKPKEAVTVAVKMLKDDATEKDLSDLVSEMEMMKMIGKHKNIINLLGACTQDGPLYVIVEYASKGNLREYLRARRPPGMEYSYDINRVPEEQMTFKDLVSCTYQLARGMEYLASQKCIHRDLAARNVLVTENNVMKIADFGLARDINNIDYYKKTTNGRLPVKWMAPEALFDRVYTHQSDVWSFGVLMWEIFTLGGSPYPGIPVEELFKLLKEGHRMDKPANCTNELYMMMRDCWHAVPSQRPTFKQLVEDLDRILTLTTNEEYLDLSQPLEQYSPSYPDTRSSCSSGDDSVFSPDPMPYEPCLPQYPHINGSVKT
T1 sequence (P11362 22-822): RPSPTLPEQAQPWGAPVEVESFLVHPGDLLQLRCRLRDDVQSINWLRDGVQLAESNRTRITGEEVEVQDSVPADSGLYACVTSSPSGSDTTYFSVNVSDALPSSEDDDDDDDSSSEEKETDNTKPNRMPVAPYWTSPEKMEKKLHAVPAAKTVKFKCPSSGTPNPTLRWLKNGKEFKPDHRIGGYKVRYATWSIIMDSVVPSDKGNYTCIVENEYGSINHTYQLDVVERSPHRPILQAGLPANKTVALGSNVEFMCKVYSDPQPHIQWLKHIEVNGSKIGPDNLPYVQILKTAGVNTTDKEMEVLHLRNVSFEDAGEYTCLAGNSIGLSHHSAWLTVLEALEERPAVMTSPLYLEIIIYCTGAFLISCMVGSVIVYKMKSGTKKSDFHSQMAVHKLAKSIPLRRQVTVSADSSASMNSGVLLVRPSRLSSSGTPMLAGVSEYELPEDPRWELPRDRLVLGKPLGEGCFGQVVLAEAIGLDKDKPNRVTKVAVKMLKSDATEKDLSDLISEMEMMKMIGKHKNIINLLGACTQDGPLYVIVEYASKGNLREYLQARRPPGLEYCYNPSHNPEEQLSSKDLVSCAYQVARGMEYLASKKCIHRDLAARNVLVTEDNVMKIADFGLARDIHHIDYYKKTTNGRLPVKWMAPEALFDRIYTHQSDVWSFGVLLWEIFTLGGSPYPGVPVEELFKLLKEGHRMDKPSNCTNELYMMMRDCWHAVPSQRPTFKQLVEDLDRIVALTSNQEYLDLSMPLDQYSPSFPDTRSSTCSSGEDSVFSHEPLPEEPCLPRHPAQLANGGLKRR
T3 sequence (P22607 23-806): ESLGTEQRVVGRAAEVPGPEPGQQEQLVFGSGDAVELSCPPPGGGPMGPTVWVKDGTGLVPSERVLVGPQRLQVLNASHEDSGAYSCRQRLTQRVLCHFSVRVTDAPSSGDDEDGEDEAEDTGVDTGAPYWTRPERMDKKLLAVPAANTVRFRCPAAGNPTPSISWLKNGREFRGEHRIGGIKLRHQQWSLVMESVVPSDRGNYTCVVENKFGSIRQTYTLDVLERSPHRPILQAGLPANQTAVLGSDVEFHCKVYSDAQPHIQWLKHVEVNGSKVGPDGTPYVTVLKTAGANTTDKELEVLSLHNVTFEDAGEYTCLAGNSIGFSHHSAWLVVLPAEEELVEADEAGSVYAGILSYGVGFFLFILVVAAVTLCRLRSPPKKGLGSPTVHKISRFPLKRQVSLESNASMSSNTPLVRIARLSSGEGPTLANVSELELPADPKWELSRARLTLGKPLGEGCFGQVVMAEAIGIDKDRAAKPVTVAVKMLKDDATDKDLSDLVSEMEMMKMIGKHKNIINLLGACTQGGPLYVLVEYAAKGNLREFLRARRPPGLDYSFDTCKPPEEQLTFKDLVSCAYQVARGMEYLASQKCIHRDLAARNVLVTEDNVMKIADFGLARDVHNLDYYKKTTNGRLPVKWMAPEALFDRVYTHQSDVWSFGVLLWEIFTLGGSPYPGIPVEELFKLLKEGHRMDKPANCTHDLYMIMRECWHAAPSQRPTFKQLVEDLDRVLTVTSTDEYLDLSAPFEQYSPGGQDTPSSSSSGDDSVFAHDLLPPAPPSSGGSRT

SMILES: Cc1ncc(Cl)c([C@@H](C)Oc2ccc3[nH]nc(-c4ccc5c(c4)COC4(CCN(CC(F)(F)F)CC4)O5)c3c2)c1Cl [Example 167, 6-[5-[(1R)-1-(3,5-dichloro-2-methyl-4-pyridyl)ethoxy]-1H-indazol-3-yl]-1′-(2,2,2-trifluoroethyl)spiro[4H-1,3-benzodioxine-2,4′-piperidine]]
- Kd (FGFR1): 100 to 250 nM
- Kd (FGFR2): 100 to 250 nM
- Kd (FGFR3): 0.1 to 100 nM
- Kd (FGFR4): 0.1 to 100 nM

SMILES: Cc1cnnc(C)c1[C@@H](C)Oc1ccc2[nH]nc(-c3cc(C#N)cc(N4CCN(C)CC4)c3)c2c1 [Example 62, 3-[5-[(1R)-1-(3,5-dimethylpyridazin-4-yl)ethoxy]-1H-indazol-3-yl]-5-(4-methylpiperazin-1-yl)benzonitrile]
- Kd (FGFR1): > 1000 nM
- Kd (FGFR2): > 1000 nM
- Kd (FGFR3): > 1000 nM
- Kd (FGFR4): 100 to 250 nM

SMILES: Cc1cnnc(C)c1[C@@H](C)Oc1ccc2[nH]nc(-c3cc(C#N)cc(C#N)c3)c2c1 [Example 83, 5-[5-[(1R)-1-(3,5-dimethylpyridazin-4-yl)ethoxy]-1H-indazol-3-yl]benzene-1,3-dicarbonitrile]
- Kd (FGFR1): 250 to 1000 nM
- Kd (FGFR2): > 1000 nM
- Kd (FGFR3): 250 to 1000 nM
- Kd (FGFR4): 0.1 to 100 nM

SMILES: CCOc1cc(OC)cc(-c2n[nH]c3ccc(O[C@@H](C)c4c(C)cnnc4C)cc23)c1 [Example 59, 5-[(1S)-1-(3,5-dimethylpyridazin-4-yl)ethoxy]-3-(3-ethoxy-5-methoxy-phenyl)-1H-indazole]
- Kd (FGFR1): > 1000 nM
- Kd (FGFR2): > 1000 nM
- Kd (FGFR3): > 1000 nM
- Kd (FGFR4): > 1000 nM

SMILES: Cc1cnnc(C)c1[C@@H](C)Oc1ccc2[nH]nc(-c3cc(C#N)cc(OC4CCOCC4)c3)c2c1 [Example 71, 3-[5-[(1R)-1-(3,5-dimethylpyridazin-4-yl)ethoxy]-1H-indazol-3-yl]-5-tetrahydropyran-4-yloxy-benzonitrile]
- Kd (FGFR1): 250 to 1000 nM
- Kd (FGFR2): > 1000 nM
- Kd (FGFR3): 250 to 1000 nM
- Kd (FGFR4): 0.1 to 100 nM

SMILES: Cc1cccc(C(=O)N2CCOc3ncc(-c4n[nH]c5ccc(O[C@H](C)c6c(Cl)cncc6Cl)cc45)cc32)n1 [Example 39, [7-[5-[(1R)-1-(3,5-dichloro-4-pyridyl)ethoxy]-1H-indazol-3-yl]-2,3-dihydro-pyrido[2,3-b][1,4]oxazin-1-yl]-(6-methyl-2-pyridyl)methanone]
- Kd (FGFR1): > 1000 nM
- Kd (FGFR2): > 1000 nM
- Kd (FGFR3): 250 to 1000 nM
- Kd (FGFR4): 0.1 to 100 nM

SMILES: C[C@@H](Oc1ccc2[nH]nc(-c3cnc4c(c3)N(C(=O)N3CCOCC3)CCO4)c2c1)c1c(Cl)cncc1Cl [Example 18, [7-[5-[(1R)-1-(3,5-dichloro-4-pyridyl)ethoxy]-1H-indazol-3-yl]-2,3-dihydropyrido[2,3-b][1,4]oxazin-1-yl]-morpholino-methanone]
- Kd (FGFR1): 250 to 1000 nM
- Kd (FGFR2): 250 to 1000 nM
- Kd (FGFR3): 100 to 250 nM
- Kd (FGFR4): 0.1 to 100 nM

SMILES: C[C@@H](Oc1ccc2[nH]nc(-c3cnc(NC(=O)CN(C)C)c(F)c3)c2c1)c1c(Cl)cncc1Cl [Example 22, N-[5-[5-[(1R)-1-(3,5-dichloro-4-pyridyl)ethoxy]-1H-indazol-3-yl]-3-fluoro-2-pyridyl]-2-(dimethylamino)acetamide]
- Kd (FGFR1): 0.1 to 100 nM
- Kd (FGFR2): 0.1 to 100 nM
- Kd (FGFR3): 0.1 to 100 nM
- Kd (FGFR4): 0.1 to 100 nM

SMILES: Cc1cnnc(C)c1[C@@H](C)Oc1ccc2[nH]nc(-c3cnc(O[C@@H]4CCOC4)c(C#N)c3)c2c1 [Example 128, 5-(5-((R)-1-(3,5-dimethylpyridazin-4-yl)ethoxy)-1H-indazol-3-yl)-2-(((R)-tetrahydrofuran-3-yl)oxy)nicotinonitrile]
- Kd (FGFR1): 100 to 250 nM
- Kd (FGFR2): 100 to 250 nM
- Kd (FGFR3): 0.1 to 100 nM
- Kd (FGFR4): 0.1 to 100 nM

SMILES: C[C@@H](Oc1cc2c(-c3cnc4c(c3)N(S(C)(=O)=O)CCO4)n[nH]c2cc1Cl)c1c(Cl)cncc1Cl [Example 145, 7-[6-chloro-5-[(1R)-1-(3,5-dichloro-4-pyridyl)ethoxy]-1H-indazol-3-yl]-1-methylsulfonyl-2,3-dihydropyrido[2,3-b][1,4]oxazine]
- Kd (FGFR1): > 1000 nM
- Kd (FGFR2): > 1000 nM
- Kd (FGFR3): > 1000 nM
- Kd (FGFR4): 0.1 to 100 nM

SMILES: C[C@@H](Oc1ccc2[nH]nc(-c3cnc4c(c3)N(CCN3CCOCC3)CCO4)c2c1)c1c(Cl)cncc1Cl [Example 50, 7-[5-[(1R)-1-(3,5-dichloro-4-pyridyl)ethoxy]-1H-indazol-3-yl]-1-(2-morpholino-ethyl)-2,3-dihydropyrido[2,3-b][1,4]oxazine]
- Kd (FGFR1): > 1000 nM
- Kd (FGFR2): > 1000 nM
- Kd (FGFR3): > 1000 nM
- Kd (FGFR4): 0.1 to 100 nM

SMILES: COc1cc(-c2n[nH]c3ccc(O[C@H](C)c4c(Cl)cncc4Cl)cc23)cc(C#N)c1OC [Example 81, 5-[5-[(1R)-1-(3,5-dichloro-4-pyridyl)ethoxy]-1H-indazol-3-yl]-2,3-dimethoxy-benzonitrile]
- Kd (FGFR1): > 1000 nM
- Kd (FGFR2): > 1000 nM
- Kd (FGFR3): > 1000 nM
- Kd (FGFR4): 0.1 to 100 nM

SMILES: Cc1cc(C(=O)N2CCOc3ncc(-c4n[nH]c5ccc(O[C@H](C)c6c(Cl)cncc6Cl)cc45)cc32)ccn1 [Example 23, [7-[5-[(1R)-1-(3,5-dichloro-4-pyridyl)ethoxy]-1H-indazol-3-yl]-2,3-dihydro-pyrido[2,3-b][1,4]oxazin-1-yl]-(2-methyl-4-pyridyl)methanone]
- Kd (FGFR1): > 1000 nM
- Kd (FGFR2): > 1000 nM
- Kd (FGFR3): 250 to 1000 nM
- Kd (FGFR4): 0.1 to 100 nM

SMILES: COCCOc1cc(C#N)cc(-c2n[nH]c3ccc(O[C@H](C)c4c(C)cnnc4C)cc23)c1 [Example 75, 3-[5-[(1R)-1-(3,5-dimethylpyridazin-4-yl)ethoxy]-1H-indazol-3-yl]-5-(2-methoxyethoxy)-benzonitrile]
- Kd (FGFR1): 100 to 250 nM
- Kd (FGFR2): 100 to 250 nM
- Kd (FGFR3): 0.1 to 100 nM
- Kd (FGFR4): 0.1 to 100 nM

SMILES: COc1cc(NCc2ccccn2)cc(-c2n[nH]c3ccc(O[C@H](C)c4c(Cl)cncc4Cl)cc23)c1 [Example 46, 3-[5-[(1R)-1-(3,5-dichloro-4-pyridyl)ethoxy]-1H-indazol-3-yl]-5-methoxy-N-(2-pyridyl-methyl)aniline]
- Kd (FGFR1): > 1000 nM
- Kd (FGFR2): > 1000 nM
- Kd (FGFR3): > 1000 nM
- Kd (FGFR4): 0.1 to 100 nM

SMILES: COc1c(C)cc(-c2n[nH]c3ccc(O[C@H](C)c4c(C)cnnc4C)cc23)cc1C#N [Example 80, 5-[5-[(1R)-1-(3,5-dimethylpyridazin-4-yl)ethoxy]-1H-indazol-3-yl]-2-methoxy-3-methyl-benzonitrile]
- Kd (FGFR1): 100 to 250 nM
- Kd (FGFR2): 0.1 to 100 nM
- Kd (FGFR3): 0.1 to 100 nM
- Kd (FGFR4): 0.1 to 100 nM

SMILES: C[C@@H](Oc1ccc2[nH]nc(-c3cnc(N[C@@H]4CCOC4)c(C#N)c3)c2c1)c1c(Cl)cncc1Cl [Example 130, 5-(5-((R)-1-(3,5-dichloropyridin-4-yl)ethoxy)-1H-indazol-3-yl)-2-(((R)-tetrahydrofuran-3-yl)amino)nicotinonitrile]
- Kd (FGFR1): 0.1 to 100 nM
- Kd (FGFR2): 0.1 to 100 nM
- Kd (FGFR3): 0.1 to 100 nM
- Kd (FGFR4): 0.1 to 100 nM

SMILES: Cc1cc2[nH]nc(-c3cnc(O[C@@H]4CCOC4)c(C#N)c3)c2cc1O[C@H](C)c1c(Cl)cncc1Cl [Example 135, 5-(5-((R)-1-(3,5-dichloropyridin-4-yl)ethoxy)-6-methyl-1H-indazol-3-yl)-2-(((R)-tetrahydrofuran-3-yl)oxy)nicotinonitrile]
- Kd (FGFR1): 0.1 to 100 nM
- Kd (FGFR2): 0.1 to 100 nM
- Kd (FGFR3): 0.1 to 100 nM
- Kd (FGFR4): 0.1 to 100 nM

SMILES: COc1cc(C#N)cc(-c2n[nH]c3cc(OC)c(O[C@H](C)c4c(C)cnnc4C)cc23)c1 [Example 101, (R)-3-(5-(1-(3,5-dimethylpyridazin-4-yl)ethoxy)-6-methoxy-1H-indazol-3-yl)-5-methoxybenzonitrile]
- Kd (FGFR1): 0.1 to 100 nM
- Kd (FGFR2): 0.1 to 100 nM
- Kd (FGFR3): 0.1 to 100 nM
